Data from ChEMBL document CHEMBL1135773, “Purine and pyrimidine (P2) receptors as drug targets” (J Med Chem, 2002).

Tests used:
[1] = biological target: T1, P2Y purinoceptor 11 (Homo sapiens, UniProt Q96G91); experiment: Agonist activity against phospholipase C coupled human P2Y purinoceptor 11 (P2Y11); format: functional
T1 sequence (Q96G91 whole entry): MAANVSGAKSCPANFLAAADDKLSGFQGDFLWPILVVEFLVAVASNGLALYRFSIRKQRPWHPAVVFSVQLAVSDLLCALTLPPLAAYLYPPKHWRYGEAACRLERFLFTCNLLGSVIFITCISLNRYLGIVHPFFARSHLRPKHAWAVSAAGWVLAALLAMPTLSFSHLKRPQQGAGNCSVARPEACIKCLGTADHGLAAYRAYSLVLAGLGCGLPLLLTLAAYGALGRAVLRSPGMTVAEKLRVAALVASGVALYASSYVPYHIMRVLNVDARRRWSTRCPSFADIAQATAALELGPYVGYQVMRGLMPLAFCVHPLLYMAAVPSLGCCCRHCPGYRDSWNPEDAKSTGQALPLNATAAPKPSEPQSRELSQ

[2] = biological target: P2Y purinoceptor 12 (Homo sapiens, UniProt Q9H244); experiment: The compound was evaluated for antagonist activity against phospholipase C coupled human P2Y purinoceptor 12 (P2Y12); format: functional
P2Y purinoceptor 12 (Homo sapiens, UniProt Q9H244), sequence (Q9H244 whole entry): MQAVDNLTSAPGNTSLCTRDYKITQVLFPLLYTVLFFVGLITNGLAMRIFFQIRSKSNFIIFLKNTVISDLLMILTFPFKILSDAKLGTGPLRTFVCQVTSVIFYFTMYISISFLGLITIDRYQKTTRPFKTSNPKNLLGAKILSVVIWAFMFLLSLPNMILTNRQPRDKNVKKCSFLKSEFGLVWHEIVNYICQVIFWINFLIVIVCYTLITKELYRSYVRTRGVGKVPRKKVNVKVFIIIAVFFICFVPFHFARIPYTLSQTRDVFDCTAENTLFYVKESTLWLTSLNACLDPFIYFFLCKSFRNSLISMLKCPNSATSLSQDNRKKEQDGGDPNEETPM

[3] = biological target: T2, P2X purinoceptor 4 (Homo sapiens, UniProt Q99571); experiment: The compound was evaluated for antagonist activity against recombinant human P2X purinoceptor 4 (P2X4); format: functional
T2 sequence (Q99571 whole entry): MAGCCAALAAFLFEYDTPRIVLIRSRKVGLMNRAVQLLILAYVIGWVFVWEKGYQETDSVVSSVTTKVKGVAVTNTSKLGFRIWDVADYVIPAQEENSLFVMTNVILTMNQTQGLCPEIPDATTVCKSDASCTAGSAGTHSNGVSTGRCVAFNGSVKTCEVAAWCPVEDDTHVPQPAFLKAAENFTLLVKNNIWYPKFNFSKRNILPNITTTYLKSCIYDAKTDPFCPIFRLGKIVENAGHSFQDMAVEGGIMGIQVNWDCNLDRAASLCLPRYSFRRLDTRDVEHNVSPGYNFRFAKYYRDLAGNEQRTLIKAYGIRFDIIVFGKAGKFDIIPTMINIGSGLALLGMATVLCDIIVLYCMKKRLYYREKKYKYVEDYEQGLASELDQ

[4] = biological target: T3, P2X purinoceptor 3 (Homo sapiens, UniProt P56373); experiment: The compound was evaluated for antagonist activity against recombinant human P2X purinoceptor 3 (P2X3 ); format: functional
T3 sequence (P56373 whole entry): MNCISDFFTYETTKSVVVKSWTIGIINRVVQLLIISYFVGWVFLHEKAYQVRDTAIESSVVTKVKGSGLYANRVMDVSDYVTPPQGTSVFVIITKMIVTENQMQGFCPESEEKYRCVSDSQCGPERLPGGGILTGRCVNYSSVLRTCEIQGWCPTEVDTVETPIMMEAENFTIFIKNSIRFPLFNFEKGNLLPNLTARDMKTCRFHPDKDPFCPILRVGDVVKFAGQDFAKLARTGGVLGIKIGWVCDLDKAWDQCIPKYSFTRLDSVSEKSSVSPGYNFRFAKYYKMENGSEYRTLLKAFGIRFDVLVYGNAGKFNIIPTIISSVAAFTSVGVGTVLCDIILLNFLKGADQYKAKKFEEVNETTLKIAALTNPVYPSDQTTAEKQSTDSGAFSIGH

[5] = biological target: T4, P2X purinoceptor 1 (Homo sapiens, UniProt P51575); experiment: The compound was evaluated for antagonist activity against recombinant human P2X purinoceptor 1 (P2X1 ); format: functional
T4 sequence (P51575 whole entry): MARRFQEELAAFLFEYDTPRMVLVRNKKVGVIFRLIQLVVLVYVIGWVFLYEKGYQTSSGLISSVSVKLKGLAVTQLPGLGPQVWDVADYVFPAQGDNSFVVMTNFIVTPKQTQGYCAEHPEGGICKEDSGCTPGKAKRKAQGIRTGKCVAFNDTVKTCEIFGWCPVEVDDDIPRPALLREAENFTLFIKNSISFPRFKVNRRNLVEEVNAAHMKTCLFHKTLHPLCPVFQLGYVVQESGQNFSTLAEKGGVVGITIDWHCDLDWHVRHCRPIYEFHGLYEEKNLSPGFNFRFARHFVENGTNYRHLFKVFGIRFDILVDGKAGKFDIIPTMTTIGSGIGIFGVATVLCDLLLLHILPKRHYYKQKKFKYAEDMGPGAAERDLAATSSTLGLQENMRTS

[6] = biological target: T5, P2X purinoceptor 2 (Rattus norvegicus, UniProt P49653); experiment: The compound was evaluated for antagonist activity against recombinant rat P2X purinoceptor 2 (P2X2) at 10 uM; format: functional
T5 sequence (P49653 whole entry): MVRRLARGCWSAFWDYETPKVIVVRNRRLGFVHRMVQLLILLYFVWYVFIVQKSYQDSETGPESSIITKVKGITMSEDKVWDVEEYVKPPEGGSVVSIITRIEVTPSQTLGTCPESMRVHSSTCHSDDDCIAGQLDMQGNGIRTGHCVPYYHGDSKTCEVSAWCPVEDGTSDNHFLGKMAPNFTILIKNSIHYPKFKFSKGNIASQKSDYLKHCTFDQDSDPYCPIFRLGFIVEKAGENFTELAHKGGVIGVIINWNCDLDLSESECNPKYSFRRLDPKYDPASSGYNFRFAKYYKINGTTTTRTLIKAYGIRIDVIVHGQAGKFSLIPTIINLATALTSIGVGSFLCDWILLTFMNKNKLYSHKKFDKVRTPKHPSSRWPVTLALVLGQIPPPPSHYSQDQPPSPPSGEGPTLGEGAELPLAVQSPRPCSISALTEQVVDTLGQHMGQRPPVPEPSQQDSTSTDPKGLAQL

[7] = biological target: T6, P2X purinoceptor 1 (Rattus norvegicus, UniProt P47824); experiment: The compound was evaluated for antagonist activity against P2X purinoceptor 1 (P2X1) like receptor from rat vas deferens; format: functional
T6 sequence (P47824 whole entry): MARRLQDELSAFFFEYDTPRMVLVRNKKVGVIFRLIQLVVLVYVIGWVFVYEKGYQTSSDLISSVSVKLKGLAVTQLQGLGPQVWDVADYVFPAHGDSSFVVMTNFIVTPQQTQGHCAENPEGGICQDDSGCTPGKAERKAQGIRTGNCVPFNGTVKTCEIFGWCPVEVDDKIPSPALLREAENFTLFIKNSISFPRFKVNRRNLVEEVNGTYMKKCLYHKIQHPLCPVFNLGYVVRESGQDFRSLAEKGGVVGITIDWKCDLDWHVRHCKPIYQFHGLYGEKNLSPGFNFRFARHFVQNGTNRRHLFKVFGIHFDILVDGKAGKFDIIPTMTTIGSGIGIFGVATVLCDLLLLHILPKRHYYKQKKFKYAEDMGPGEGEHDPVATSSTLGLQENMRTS

[8] = biological target: P2Y purinoceptor 1 (Cavia porcellus); experiment: The compound was evaluated for antagonistic activity at P2Y purinoceptor 1 (P2Y1) from guinea pig taenia coli
[9] = biological target: P2Y purinoceptor 1 (Meleagris gallopavo); experiment: The compound was evaluated for antagonist activity against phospholipase C coupled P2Y purinoceptor 1 (P2Y1) of turkey erythrocytes
[10] = biological target: T7, P2X purinoceptor 4 (Rattus norvegicus, UniProt P51577); experiment: Antagonist activity against recombinant rat P2X purinoceptor 4 (P2X4) at 3 uM, expressed in Xenopus oocytes; format: functional, cell-based, Oocyte
T7 sequence (P51577 whole entry): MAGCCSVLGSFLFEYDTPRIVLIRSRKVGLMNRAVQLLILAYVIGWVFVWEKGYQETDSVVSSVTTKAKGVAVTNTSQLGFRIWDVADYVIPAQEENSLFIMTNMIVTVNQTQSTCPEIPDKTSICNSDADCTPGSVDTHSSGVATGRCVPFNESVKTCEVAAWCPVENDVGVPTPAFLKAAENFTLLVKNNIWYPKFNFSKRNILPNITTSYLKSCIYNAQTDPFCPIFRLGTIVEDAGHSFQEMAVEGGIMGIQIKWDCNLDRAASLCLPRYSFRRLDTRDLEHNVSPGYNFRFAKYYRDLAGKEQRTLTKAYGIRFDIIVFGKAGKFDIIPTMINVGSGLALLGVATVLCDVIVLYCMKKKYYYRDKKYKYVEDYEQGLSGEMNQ

[11] = biological target: T8, P2X purinoceptor 5 (Rattus norvegicus, UniProt P51578); experiment: Antagonist activity against recombinant rat P2X purinoceptor 5 (P2X5); format: functional
T8 sequence (P51578 whole entry): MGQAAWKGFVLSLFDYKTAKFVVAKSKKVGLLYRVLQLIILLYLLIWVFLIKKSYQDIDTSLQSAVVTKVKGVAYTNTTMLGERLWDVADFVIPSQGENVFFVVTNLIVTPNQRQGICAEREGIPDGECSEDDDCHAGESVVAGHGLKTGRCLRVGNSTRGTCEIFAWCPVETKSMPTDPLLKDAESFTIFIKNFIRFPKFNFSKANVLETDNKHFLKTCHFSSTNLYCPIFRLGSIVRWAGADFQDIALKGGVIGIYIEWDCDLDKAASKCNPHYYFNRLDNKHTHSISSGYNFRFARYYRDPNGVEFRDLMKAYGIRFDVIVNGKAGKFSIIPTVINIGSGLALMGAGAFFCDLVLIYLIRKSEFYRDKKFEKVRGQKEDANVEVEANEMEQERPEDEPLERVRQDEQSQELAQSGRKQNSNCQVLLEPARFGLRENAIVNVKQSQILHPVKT

[12] = biological target: P2X purinoceptor 6 (Rattus norvegicus, UniProt P51579); experiment: Antagonist activity against recombinant rat P2X purinoceptor 6 (P2X6 ); format: functional
P2X purinoceptor 6, sequence (P51579 whole entry): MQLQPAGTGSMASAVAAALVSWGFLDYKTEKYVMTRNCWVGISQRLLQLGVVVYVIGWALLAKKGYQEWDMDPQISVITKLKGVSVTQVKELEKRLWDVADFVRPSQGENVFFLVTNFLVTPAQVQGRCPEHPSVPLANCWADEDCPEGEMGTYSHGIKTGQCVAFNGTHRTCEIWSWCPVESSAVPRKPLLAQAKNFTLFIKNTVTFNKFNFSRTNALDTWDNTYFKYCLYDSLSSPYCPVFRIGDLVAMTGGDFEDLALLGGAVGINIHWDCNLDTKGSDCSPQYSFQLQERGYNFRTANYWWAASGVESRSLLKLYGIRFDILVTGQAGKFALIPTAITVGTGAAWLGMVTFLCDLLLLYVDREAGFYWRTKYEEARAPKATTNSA

[13] = biological target: T5, P2X purinoceptor 2; experiment: The compound was evaluated for antagonist activity against recombinant rat receptor P2X purinoceptor 2 (P2X2) at 30 uM, expressed in Xenopus oocytes; format: functional, cell-based, Oocyte
[14] = biological target: P2Y purinoceptor 2 (Homo sapiens, UniProt P41231); experiment: Evaluated for agonist activity against phospholipase C coupled recombinant human P2Y purinoceptor 2 (P2Y2); format: functional
P2Y purinoceptor 2, sequence (P41231 whole entry): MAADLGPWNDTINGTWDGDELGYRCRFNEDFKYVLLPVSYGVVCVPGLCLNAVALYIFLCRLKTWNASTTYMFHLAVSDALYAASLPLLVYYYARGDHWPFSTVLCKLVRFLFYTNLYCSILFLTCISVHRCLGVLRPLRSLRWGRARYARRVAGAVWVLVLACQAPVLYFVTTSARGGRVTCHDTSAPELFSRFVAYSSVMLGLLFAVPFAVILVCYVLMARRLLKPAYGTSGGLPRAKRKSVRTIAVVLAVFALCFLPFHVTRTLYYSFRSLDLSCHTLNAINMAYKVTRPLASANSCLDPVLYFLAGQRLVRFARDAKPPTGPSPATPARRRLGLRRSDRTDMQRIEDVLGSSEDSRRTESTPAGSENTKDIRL

[15] = biological target: T1, P2Y purinoceptor 11; experiment: The compound was evaluated for antagonist activity against phospholipase C coupled human P2Y purinoceptor 11 (P2Y11); format: functional
[16] = biological target: P2Y purinoceptor 12 (Rattus norvegicus, UniProt Q9EPX4); experiment: Antagonist activity against phospholipase C coupled rat P2Y purinoceptor 12 (P2Y12); format: functional
P2Y purinoceptor 12 (Rattus norvegicus, UniProt Q9EPX4), sequence (Q9EPX4 whole entry): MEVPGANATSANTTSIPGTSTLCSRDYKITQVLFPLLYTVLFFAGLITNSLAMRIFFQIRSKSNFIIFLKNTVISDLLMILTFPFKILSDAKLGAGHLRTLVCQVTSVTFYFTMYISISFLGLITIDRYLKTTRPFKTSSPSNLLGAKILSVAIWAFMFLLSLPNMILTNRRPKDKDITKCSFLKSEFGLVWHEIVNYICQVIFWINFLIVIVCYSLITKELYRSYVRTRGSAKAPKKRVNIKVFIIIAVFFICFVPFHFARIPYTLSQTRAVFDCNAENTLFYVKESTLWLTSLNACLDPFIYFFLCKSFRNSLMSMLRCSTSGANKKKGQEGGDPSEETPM

[17] = biological target: P2Y purinoceptor 4 (Homo sapiens, UniProt P51582); experiment: The compound was evaluated for antagonist activity against phospholipase C coupled recombinant human P2Y purinoceptor 4 (P2Y4); format: functional
P2Y purinoceptor 4, sequence (P51582 whole entry): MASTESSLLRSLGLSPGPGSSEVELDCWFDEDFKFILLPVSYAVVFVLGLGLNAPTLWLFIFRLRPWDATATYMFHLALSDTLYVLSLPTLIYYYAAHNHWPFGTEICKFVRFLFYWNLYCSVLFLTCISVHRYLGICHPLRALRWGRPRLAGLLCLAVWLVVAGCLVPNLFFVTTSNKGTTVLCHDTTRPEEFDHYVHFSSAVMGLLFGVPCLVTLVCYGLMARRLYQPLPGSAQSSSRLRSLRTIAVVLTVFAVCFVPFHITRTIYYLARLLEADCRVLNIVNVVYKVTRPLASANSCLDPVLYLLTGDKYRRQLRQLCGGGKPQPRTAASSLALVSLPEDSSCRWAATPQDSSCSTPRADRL

[18] = biological target: P2Y purinoceptor 6 (Homo sapiens, UniProt Q15077); experiment: The compound was evaluated for antagonist activity against phospholipase C coupled recombinant human P2Y purinoceptor 6 (P2Y6); format: functional; conditions: concentration not given here
P2Y purinoceptor 6, sequence (Q15077 whole entry): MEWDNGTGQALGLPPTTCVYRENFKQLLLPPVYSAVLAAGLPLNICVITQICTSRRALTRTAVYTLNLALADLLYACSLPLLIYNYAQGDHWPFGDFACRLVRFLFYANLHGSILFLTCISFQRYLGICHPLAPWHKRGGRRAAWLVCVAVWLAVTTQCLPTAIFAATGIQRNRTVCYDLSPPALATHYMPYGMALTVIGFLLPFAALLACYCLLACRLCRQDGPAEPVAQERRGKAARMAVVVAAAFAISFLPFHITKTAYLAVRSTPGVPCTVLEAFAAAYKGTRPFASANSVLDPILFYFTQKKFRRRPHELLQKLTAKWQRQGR

[19] = biological target: P2Y purinoceptor 1 (Meleagris gallopavo, UniProt P49652); experiment: Evaluated for antagonist activity against phospholipase C coupled P2Y purinoceptor 1 (P2Y1) of turkey erythrocytes; format: functional
P2Y purinoceptor 1, sequence (P49652 whole entry): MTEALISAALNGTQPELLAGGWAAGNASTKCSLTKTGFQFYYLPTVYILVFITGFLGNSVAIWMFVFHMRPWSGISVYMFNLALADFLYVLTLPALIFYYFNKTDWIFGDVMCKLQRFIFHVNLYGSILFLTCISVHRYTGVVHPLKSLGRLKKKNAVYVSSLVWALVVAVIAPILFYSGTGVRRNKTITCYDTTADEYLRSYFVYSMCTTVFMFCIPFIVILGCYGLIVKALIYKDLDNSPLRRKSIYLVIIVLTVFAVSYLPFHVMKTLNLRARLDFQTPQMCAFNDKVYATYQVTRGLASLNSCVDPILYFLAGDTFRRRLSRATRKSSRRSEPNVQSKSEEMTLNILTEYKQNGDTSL

[20] = biological target: T6, P2X purinoceptor 1; experiment: The compound was evaluated for antagonist activity against recombinant rat P2X purinoceptor 1 (P2X1) at 1 uM, expressed in Xenopus oocytes; format: functional, cell-based, Oocyte

For `CCCSc1nc(N)c2ncn([C@@H]3O[C@H](COP(=O)(O)OP(=O)(O)C(Cl)(Cl)P(=O)(O)O)[C@@H](O)[C@H]3O)c2n1`, the EC50 [1] was 1.5 µM and the EC50 [2] was 0.0013 µM.
In the case of `O=C(Nc1cccc(C(=O)Nc2ccc(S(=O)(=O)O)c3cc(S(=O)(=O)O)cc(S(=O)(=O)O)c23)c1)Nc1cccc(C(=O)Nc2ccc(S(=O)(=O)O)c3cc(S(=O)(=O)O)cc(S(=O)(=O)O)c23)c1`, the IC50 [3] is reported as > 100 µM, the IC50 [4] is reported as 28.5 µM and the IC50 [5] is reported as 0.21 µM. For the same molecule, the IC50 [6] was > 50 µM.
`Nc1c(S(=O)(=O)O)cc(Nc2ccc(Nc3nc(Cl)nc(Cl)n3)cc2S(=O)(=O)O)c2c1C(=O)c1ccccc1C2=O` was tested, and the IC50 [7] was 1.6 µM and the IC50 [8] was < 1 µM.
`CNc1nc(Cl)nc2c1ncn2CCC(COP(=O)(O)O)COP(=O)(O)O` was tested, and the EC50 [9] was 0.84 µM.
In the case of `Cc1ccc(C(=O)Nc2ccc(S(=O)(=O)O)c3cc(S(=O)(=O)O)cc(S(=O)(=O)O)c23)cc1NC(=O)c1cccc(NC(=O)Nc2cccc(C(=O)Nc3cc(C(=O)Nc4ccc(S(=O)(=O)O)c5cc(S(=O)(=O)O)cc(S(=O)(=O)O)c45)ccc3C)c2)c1` [SURAMIN], the EC50 [10] is reported as > 100 µM, the EC50 [11] is reported as 4 µM and the EC50 [12] is reported as > 100 µM. The EC50 [13] was 10.4 µM, the EC50 [14] was 48 µM and the EC50 [15] was 16 µM. The EC50 [16] was 4 µM, the EC50 [17] was > 100 µM and the inhibition [18] was 27%. For the same molecule, the EC50 [19] was > 10 µM and the EC50 [20] was 1 µM.
